Laboratory results reported in patent publication EP1808178A1, “Composition comprising Astragalus radix extracts for treating prostate cancer” (Golden Biotechnology Corp., priority 2005, dated 2007).

System: human prostate cancer cell lines- LNCaP cells
Test: In vitro mode adjunctive treatment activity assay with Taxol (MTT colorimetric cell survival)
Assay type: cell-based
Details: PCF1 concentration 0.0 µL/mL, i.e. Taxol (2nM) alone
Experimental: Utilize in vitro filter mode for human prostate cancer cell lines- LNCaP cells. Where human prostate cancer cell lines - LNCaP cells is being cultured in the culture medium which is supplemented by fetalbovine serum for 24 hours, and process cells by Taxol for 72 hours, and then change the culture medium so as to culture it in a new culture medium by adding assay sample for 72 hours, afterwards evaluate the cell survival rate by MIT colorimetric analysis method.
? The assay analysis of the compositions in accordance with the present invention in effect for suppressing the growth of human prostate cancer cells, wherein it is necessary to compute the cell survival rate for cells in each well of96-well microplate, afterwards evaluate the cancer cells survival rate by MIT colorimetric analysis method.
? MTT colorimetric analysis method: MTT is a kind of tertrazolium salt, with a full name of 3-[4, 5-Dimenthylthialzol-2-yl] 2, 5-diphenyltetrazoliumbromide, which is the yellow dye, capable to be absorbed by live cells and also be reduced to blue color formazan by succinate-tetrazoliumreductase in mitochondrion, which is commonly used for filtering the affection for matters to the growth and proliferation of cells.

In the case of `CC(=O)O[C@H]1C(=O)[C@@]2(C)[C@H]([C@H](OC(=O)c3ccccc3)[C@]3(O)C[C@H](OC(=O)[C@H](O)[C@@H](NC(=O)c4ccccc4)c4ccccc4)C(C)=C1C3(C)C)[C@]1(OC(C)=O)CO[C@@H]1C[C@@H]2O` [Taxol], the “Cell Survival Rate (%)” value is reported as 56.4%.
